The record followed here is ChEMBL document CHEMBL4433260, “Oxadiazole scaffolds in anti-tuberculosis drug discovery” (Bioorg Med Chem Lett, 2019).

Assay [1] relates to Mycobacterium tuberculosis. Kind of assay: Antimycobacterial activity against non-replicating Mycobacterium tuberculosis H37Rv at 1.6 ug/ml relative to control. The class given is functional.
Assay [2] deals with Mycobacterium tuberculosis. Description: Antimycobacterial activity against replicating Mycobacterium tuberculosis H37Rv at 8 ug/ml relative to control. The assay is classed as functional.
The subject of assay [3] is Mycobacterium tuberculosis. Description: Antimycobacterial activity against Mycobacterium tuberculosis Erdman. The assay is classed as functional.
The subject of assay [4] is Mycolicibacterium smegmatis. Kind of assay: Antimycobacterial activity against Mycobacterium smegmatis str. MC2 155. The assay is classed as functional.
Assay [5] relates to Mycobacterium tuberculosis. Description: Antimycobacterial activity against Mycobacterium tuberculosis H37Rv. The assay is classed as functional.
Assay [6] is described as follows: Inhibition of Mycobacterium tuberculosis H37Rv shikimate kinase using shikimic acid as substrate preincubated for 15 mins followed by substrate addition in presence of ATP by LC/MS analysis.
For assay [7], the system named is Mycobacterium tuberculosis. Description: Antimycobacterial activity against Mycobacterium tuberculosis H37Rv incubated for 5 days by alamar blue assay. The class given is functional. To be noted: 120 h.
Assay [8] relates to Mycobacterium tuberculosis. Kind of assay: Antimycobacterial activity against Mycobacterium tuberculosis H37Rv measured after 28 days by Lowensteine-Jensen method. The assay is classed as functional. To be noted: 672 h.
For assay [9], the system named is Mycobacterium tuberculosis. Description: Antimycobacterial activity against Mycobacterium tuberculosis H37Rv at 250 ug/ml measured after 4 weeks by Lowensteine-Jensen method relative to control. The class given is functional. The settings on record: 672 h.
Assay [10] has as its system Mycobacterium tuberculosis. Kind of assay: Antimycobacterial activity against Mycobacterium tuberculosis H37Rv at 100 ug/ml by alamar blue assay relative to control. The class given is functional. A general note: Alamar Blue is a resazurin reagent that responds to reducing activity.
The test system of assay [11] is Mycobacterium tuberculosis. Kind of assay: Antitubercular activity against dormant stage of Mycobacterium tuberculosis H37Ra. The assay is classed as functional.
Assay [12] relates to Mycobacterium tuberculosis. Kind of assay: Antimycobacterial activity against Mycobacterium tuberculosis H37Rv by alamar blue assay. The assay is classed as functional.

Converted amounts (≈) assume the structure as drawn.

On to `O=C(Nc1nnc(-c2ccc(F)cc2)o1)c1ccc(Cl)cc1`, for which, in assay [1], the inhibition at 1.6 µg/mL is above 90%. Further, the inhibition at 8 µg/mL in [2] was above 90%. Besides, the MIC in assay [3] is 1.6 µg/mL (≈ 5.04 µM); in assay [4], 0.4 µg/mL (≈ 1.26 µM).
With `O=C(Nc1nnc(-c2ccccc2Cl)o1)c1cccc(Oc2ccccc2)c1`, in assay [5], the MIC was below 1 µg/mL. Moreover, the IC50 in assay [6] was 3.43 µM.
Turning to `Cn1c(-c2cccc(Cl)c2Cl)nc2cc(-c3nc(-c4ccc(Cl)cc4)no3)ccc21`, the MIC in assay [7] is 1.6 µg/mL (≈ 3.51 µM).
On to `Cn1c(-c2cccc(Cl)c2F)nc2cc(-c3nc(Cc4cccc(Cl)c4)no3)ccc21`, for which the MIC in assay [7] was found to be 1.6 µg/mL (≈ 3.53 µM).
`Cn1c(-c2cccc(Cl)c2Cl)nc2cc(-c3nc(-c4ccccc4Cl)no3)ccc21` displayed an MIC in [7] of 1.6 µg/mL (≈ 3.51 µM).
For the compound `Cn1c(-c2cccc(Cl)c2F)nc2cc(-c3nc(-c4ccc(Cl)cc4)no3)ccc21`, 1.6 µg/mL (≈ 3.64 µM) was the least that counted as inhibitory in assay [7] (MIC).
Turning to `Cc1ccc2nc(Cl)c(CN(c3ccccc3)c3nnc(-c4cccnc4)o3)cc2c1`, the MIC in [8] lay within 60 to 200 µM (≈ 25.7 to 85.6 µg/mL).
Consider `Clc1ccc2nc(Cl)c(CN(c3ccccc3)c3nnc(-c4cccnc4)o3)cc2c1`, for which, in [8], the MIC lay within 60 to 200 µM (≈ 26.9 to 89.7 µg/mL).
The compound `Cc1nn(-c2ccccc2)c(Oc2cccc(C(F)(F)F)c2)c1-c1nnc(-c2ccc(Br)cc2)o1` registered an inhibition at 250 µg/mL in [9] above 90%.
The compound `COc1ccc(-c2nnc(-c3cc4cc(C)ccc4n4nnnc34)o2)cc1` came in with an inhibition at 100 µg/mL in assay [10] above 90%.
Compound `Cc1ccc(-c2nnc(-c3c(C)nn(-c4ccccc4)c3Oc3cccc(F)c3)o2)cc1` showed an inhibition at 250 µg/mL in [9] above 90%.
`Cc1ccc(-c2nnc(-c3c(C)nn(-c4ccccc4)c3Oc3ccc(F)cc3)o2)cc1` showed an inhibition at 250 µg/mL in assay [9] above 90%.
In turn, `Cc1nn(-c2ccccc2)c(Oc2ccc(F)cc2)c1-c1nnc(-c2ccc(Br)cc2)o1` displayed an inhibition at 250 µg/mL in assay [9] above 90%.
`CO[C@H]1O[C@H](Cc2nnc(C)o2)[C@@H](OCc2ccccc2)[C@H](OCc2ccccc2)[C@H]1OCc1ccccc1` returned an MIC in [5] of 60 µM.
In turn, `Cc1ccc2c(c1)cc(-c1nnc(-c3ccncc3)o1)c1nnnn12` returned an inhibition at 100 µg/mL in assay [10] above 90%.
For `CC1(C)Cc2c(C#CCO)c(NC(=O)C(C)(C)C)cc(-c3nnc(-c4ccc(C(F)(F)F)cc4)o3)c2O1`, it took 5.7 µM to reach the 90% level in assay [11] (IC90).
As to `O=C(/C=C/c1ccccc1)Nc1nnc(C2CCCc3ccccc32)o1` (stereo not given), in [5], the MIC is below 1 µg/mL. In assay [6], the IC50 stood at 3.79 µM.
In turn, `Clc1ccc2nc(Cl)c(CN(c3ccccc3)c3nnc(-c4ccncc4)o3)cc2c1` displayed an MIC in [8] of 60 to 200 µM (≈ 26.9 to 89.7 µg/mL).
Still for that read-out and setting: under `Clc1nc2ccccc2cc1CN(c1ccccc1)c1nnc(-c2ccncc2)o1` stands 60 to 200 µM (≈ 24.8 to 82.8 µg/mL).
For the compound `Clc1ccc(-c2nnc(/N=C/c3ccco3)o2)cc1`, in assay [12], the MIC stood at 3.12 µg/mL (≈ 11.4 µM).

The inhibition is the drop in the measured response relative to a control, in per cent. As a reminder, the MIC is the least concentration at which growth counts as inhibited. A high value points to a need for much substance. One may read the IC50 as the concentration that gives 50% inhibition. One may read the IC90 as the concentration needed for an effect of 90%.
